“Also recorded” adds a separate entry of the source. Like-named read-outs stand apart in the source and are kept apart here.
Key:
[1] = test system: human promyelocytic leukemia cell HL-60; test: MTT anti-proliferation, HL-60; format: cell-based; settings: for growth inhibition (activities of cells vs control): HL-60, 1-20 μM; for IC50: HL-60, MTT, n = 3
Experimental: (§1) Cells in logarithmic growth phase were collected and then inoculated in 1˜2×10^4 cells/well in a 96-well plate respectively according to the sizes of cells and whether they attached to the wall, the cells were centrifuged and the supernatant was removed after growing for 24 hours, and then drug administration was carried out according to the groups as below: the drug group and the drug free group were set up for tumor cells (the concentrations ranged from 1˜20 μM), 5 or 6 duplicates were set for each group and the cells were incubated for 24 or 72 hours. The supernatant was removed and 100 μl serum free culture solution containing 0.5 mg/ml MTT (tetrazolium) was added for further incubation for 4 hours, subsequently 100 μl DMSO (dimethyl sulfoxide) was added and the plate was kept on the micro-shaker for 10 minutes, and the OD value was determined on a micro-plate reader at the wavelength of 570 nm. Evaluations on the toxicity were carried out on normal human cell line LO-2 and each test was repeated for three times.

[2] = test system: human chronic granulocytic leukemia K562; test: MTT anti-proliferation, K562; format: cell-based; settings: for IC50: K562, MTT, n = 3; for growth inhibition (activities of cells vs control): K562, 1-20 μM
Experimental: as §1

[3] = test system: normal human cell line LO-2; test: MTT toxicity evaluation on normal cell line LO-2; format: cell-based; settings: for growth inhibition of normal hepatic cell line LO-2: LO-2, 1-20 μM
Experimental: as §1

[4] = test system: peripheral blood lymphocytes (PBMC) of healthy volunteers; test: Annexin V/PI apoptosis of PBMC from healthy volunteers; format: cell-based, human; settings: 24 hours
Experimental: After application by the research group and approval by the Ethics Committee of the hospital, the leukemia patients (healthy volunteers) signed the informed consent and their fresh blood was collected and transferred into heparin anticoagulation tubes, then the same volume of serum free D-Hank buffer (preheated at 37° C.) was added to re-suspend the cells, and the suspension was added to the pre-laid human lymphocyte separating medium (preheated at 37° C.), and the volume ratio between the lymphocyte separating medium and the cell suspension should be no lower than 1:1, and the mixture was centrifuged at room temperature (20-30° C.) at 500×g by a horizontal centrifuge for 30 minutes. The upper layer plasma was removed and the white fog layer in the middle was carefully collected and transferred to 5 mL (or 1-2 times of the volume) PBS (or serum free buffer for cell culture), then it was centrifuged at 200×g or 1000 rpm for 10 minutes at room temperature (20-30° C.), and the supernatant was removed, and the obtained precipitation was the peripheral blood lymphocytes (PBMC). The cells were rinsed twice according to the above-mentioned operations at 500×g by the horizontal centrifuge for 10 minutes at room temperature (20-30° C.), subsequently the cells were collected and their cell vitality was detected by using dye exclusion method for living cells (Trypan blue).
The cells were added to a 24-well plate in 3×10^5 cells/mL/well and different concentrations of 6-shogaol (10 and 20 μM) for treatment for 24 hours after they were incubated for 24 hours. Negative control group (the group without drug) and the treatment group with 6-shogaol were set up for PBMCs from different individuals respectively. After the cells were treated with 6-shogaol for 24 hours, they were transferred into 10 mL glass centrifuge tubes and centrifuged at 500 rpm (or 100×g) for 5 minutes to remove the supernatant. The cells were then rinsed with 0.01 M PBS at 500 rpm (or 100×g) for 5 minutes twice. Subsequently, after adding binding solution and staining according to the directions for use of Annexin V/PI double staining kit (BD Company), flow cytometry analysis (Becton Dickinson FACScan Flow Cytometer) was carried out. The FACS data were analyzed by professional operators of the flow cytometer by using FLOWJO software (Tree Star, Calif.) software, the apoptotic rate was counted by the sum of early apoptosis and late apoptosis, and the results were shown in Table 4 and Table 5.

[5] = test system: pulmonary carcinoma A549 cells; settings: 48 hours; read-out: IC50 for inhibiting the proliferation of A549 cells; cited from earlier work
[6] = 24 hours, read-out: Mean IC50 after 24 hours
[7] = 72 hours, read-out: Mean IC50 after 72 hours

Structure (SMILES): CCCCC/C=C/C(=O)CCc1ccc(O)c(OC)c1 [6-shogaol]
- growth inhibition (activities of cells vs control) ([1]; 24 hours, FIG. 2): significantly decreased
- growth inhibition (activities of cells vs control) ([1]; 72 hours, FIG. 6): significantly decreased
- IC50 [1, 6]: 6.93 ± 1.28 µM
- IC50 [1, 7]: 3.7 ± 0.25 µM
- IC50 ([1]; Homo sapiens, HL-60, 24 h, 24 hours, read-out: Mean IC50 after 24 hours): < 10 µM
- IC50 ([1]; Homo sapiens, HL-60, 72 h, 72 hours, read-out: Mean IC50 after 72 hours): < 5 µM
- IC50 ([2]; Homo sapiens, K562, 24 h, 24 hours, read-out: Mean IC50 after 24 hours): < 10 µM
- IC50 ([2]; Homo sapiens, K562, 72 h, 72 hours, read-out: Mean IC50 after 72 hours): < 5 µM
- growth inhibition (activities of cells vs control) ([2]; 24 hours, FIG. 5): significantly decreased
- growth inhibition (activities of cells vs control) ([2]; 72 hours, FIG. 9): significantly decreased
- IC50 [2, 6]: 8.5 ± 0.8 µM
- IC50 [2, 7]: 5 ± 0.62 µM
- growth inhibition of normal hepatic cell line LO-2 ([3]; 24 hours): didn't inhibit the proliferation
- growth inhibition of normal hepatic cell line LO-2 ([3]; 72 hours): didn't inhibit the proliferation
- toxicity on normal hepatic cells LO-2 ([3]; summary statement): No toxic reaction was found; also recorded: low toxicity
- effect on apoptosis of PBMC of healthy volunteers (t-test) ([4]; 10 cases of healthy volunteers, 10 and 20 μM): no significant difference; also recorded: no significant effects
- Apoptotic rate of 10 μM 6-shogaol ([4]; PBMC of healthy volunteer N1, 10 μM): 17.5 ± 0.8%
- Apoptotic rate of 20 μM 6-shogaol ([4]; PBMC of healthy volunteer N1, 20 μM): 22.8 ± 0.6%
- Apoptotic rate of 10 μM 6-shogaol ([4]; PBMC of healthy volunteer N2, 10 μM): 13.6 ± 0.9%
- Apoptotic rate of 20 μM 6-shogaol ([4]; PBMC of healthy volunteer N2, 20 μM): 12.3 ± 1.4%
- Apoptotic rate of 10 μM 6-shogaol ([4]; PBMC of healthy volunteer N3, 10 μM): 27.6 ± 2.4%
- Apoptotic rate of 20 μM 6-shogaol ([4]; PBMC of healthy volunteer N3, 20 μM): 31.9 ± 1.7%
- Apoptotic rate of 10 μM 6-shogaol ([4]; PBMC of healthy volunteer N4, 10 μM): 8.5 ± 0.8%
- Apoptotic rate of 20 μM 6-shogaol ([4]; PBMC of healthy volunteer N4, 20 μM): 9.7 ± 1.2%
- Apoptotic rate of 10 μM 6-shogaol ([4]; PBMC of healthy volunteer N5, 10 μM): 16.6 ± 4.8%
- Apoptotic rate of 20 μM 6-shogaol ([4]; PBMC of healthy volunteer N5, 20 μM): 12.8 ± 3.6%
- Apoptotic rate of 10 μM 6-shogaol ([4]; PBMC of healthy volunteer N6, 10 μM): 14.6 ± 0.9%
- Apoptotic rate of 20 μM 6-shogaol ([4]; PBMC of healthy volunteer N6, 20 μM): 12.3 ± 1.4%
- Apoptotic rate of 10 μM 6-shogaol ([4]; PBMC of healthy volunteer N7, 10 μM): 14.6 ± 1.4%
- Apoptotic rate of 20 μM 6-shogaol ([4]; PBMC of healthy volunteer N7, 20 μM): 15.9 ± 0.7%
- Apoptotic rate of 10 μM 6-shogaol ([4]; PBMC of healthy volunteer N8, 10 μM): 18.5 ± 1.8%
- Apoptotic rate of 20 μM 6-shogaol ([4]; PBMC of healthy volunteer N8, 20 μM): 21.7 ± 1.6%
- Apoptotic rate of 10 μM 6-shogaol ([4]; PBMC of healthy volunteer N9, 10 μM): 12.5 ± 2.9%
- Apoptotic rate of 20 μM 6-shogaol ([4]; PBMC of healthy volunteer N9, 20 μM): 14.8 ± 0.9%
- Apoptotic rate of 10 μM 6-shogaol ([4]; PBMC of healthy volunteer N10, 10 μM): 12.9 ± 1.3%
- Apoptotic rate of 20 μM 6-shogaol ([4]; PBMC of healthy volunteer N10, 20 μM): 16.5 ± 0.7%
- IC50 [5]: ~60 µM
